In patent US8946287B2, “Chemotherapeutic flavonoids, and syntheses thereof” (Purdue Research Foundation, priority 2006, dated 2015):
Where two headings read alike, the source gives them in different places.

Columns and labels:
[1] = molecular target: T1, aromatase (CYP19, BD Biosciences) (Homo sapiens, UniProt P11511); assay: Assay for inhibition of aromatase activity (fluorescence, dibenzylfluorescein)
T1 sequence (P11511 1-503): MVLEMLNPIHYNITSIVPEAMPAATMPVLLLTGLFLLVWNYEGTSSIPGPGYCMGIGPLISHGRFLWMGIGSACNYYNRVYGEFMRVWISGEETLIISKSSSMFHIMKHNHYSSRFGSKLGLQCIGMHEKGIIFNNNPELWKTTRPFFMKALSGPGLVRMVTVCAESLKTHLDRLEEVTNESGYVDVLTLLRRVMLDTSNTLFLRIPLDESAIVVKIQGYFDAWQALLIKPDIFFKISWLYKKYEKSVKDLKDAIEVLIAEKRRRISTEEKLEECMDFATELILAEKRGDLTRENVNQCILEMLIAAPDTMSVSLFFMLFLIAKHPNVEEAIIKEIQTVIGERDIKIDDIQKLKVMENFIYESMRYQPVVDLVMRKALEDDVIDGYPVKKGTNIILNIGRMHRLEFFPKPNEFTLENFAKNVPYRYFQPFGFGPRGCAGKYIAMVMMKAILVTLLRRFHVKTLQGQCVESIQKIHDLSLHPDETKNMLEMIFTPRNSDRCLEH
Procedure: Aromatase inhibition is quantified by measuring the fluorescent intensity of fluorescein, the hydrolysis product of dibenzylfluorescein by aromatase. In brief, the test substance (10 μL) is pre-incubated with the NADPH regenerating system (90 μL of 2.6 mM NADP^+, 7.6 mM glucose 6-phosphate, 0.8 U/mL glucose-6-phosphate dehydrogenase, 13.9 mM MgCl2, and 1 mg/mL albumin in 10 mL of 50 mM potassium phosphate, pH 7.4) for 10 min at 37° C. before 100 μL of the enzyme and substrate mixture [800 μL enzyme (CYP19, BD Biosciences, San Jose, Calif.), 0.4 μM dibenzylfluorescein and 4 mg/mL albumin in 10 mL of 50 mM potassium phosphate, pH 7.4] are added. Then, the reaction mixture is incubated for 30 min at 37° C. to allow aromatase to generate the product, and quenched with 75 μL 2 N NaOH. After the reaction is terminated, a 5-min shaking followed by a 2-h incubation at 37° C. enhances the noise/background ratio and fluorescence is measured at 485 nm (excitation) and 530 nm (emission). All experiments were performed in duplicate and the average was used for calculation of IC50 values (Table 2). Compounds were tested in comparison to aminogluthethimide used as positive control.

[2] = tested on: TPA-induced ornithine decarboxylase (ODC) activity in T24 cells; assay: Inhibition of TPA-induced ornithine decarboxylase (ODC) activity in T24 cells; assay type: cell-based; settings: Homo sapiens, read-out: IC50, inhibition of TPA-induced ODC activity
HL-60 cells = assay: Induction of differentiation in HL-60 cell line (NBT reduction, 4-day protocol); assay type: cell-based
[3] = tested on: TPA-induced NF-κB activity in HepG2 cells stably transfected with NF-κB-luciferase plasmid; assay: Inhibition of TPA-induced NF-κB activity in HepG2 cells (NF-κB-luciferase); assay type: cell-based, human
[4] = read-out: IC50 (μM), aromatase inhibition, fluorescein from dibenzylfluorescein, 30 min at 37° C., average of duplicates
[5] = T-24, T24 cells, TPA 200 nM, 6 h incubation

| IC50 [1] [µM] | Compound | further results |
| --- | --- | --- |
| 13.9 ± 6.09 | COCOc1ccc2c(c1)OC(c1ccc(OCOC)c(CC=C(C)C)c1)CC2=O (racemic) [8a, 7-(Methoxymethoxy)-2-(4-(methoxymethoxy)-3-(3-methylbut-2-enyl)phenyl)-chroman-4-one] | – |
| 7.67 ± 3.27 | COCOc1ccc2c(c1)OC(c1ccc(OC)c(CC=C(C)C)c1)CC2=O (racemic) [8c, 2-(4-Methoxy-3-(3-methylbut-2-enyl)phenyl)-7-(methoxymethoxy)chroman-4-one] | – |
| 4.08 ± 2.1 | COc1ccc(C2CC(=O)c3ccc(O)cc3O2)cc1CC=C(C)C (racemic) [8d, 7-Hydroxy-2-(4-methoxy-3-(3-methylbut-2-enyl)phenyl)chroman-4-one] | – |
| 25.1 ± 6.38 | COCOc1ccc(C2CC(=O)c3ccc(OC)cc3O2)cc1CC=C(C)C (racemic) [8e, 7-Methoxy-2-(4-(methoxymethoxy)-3-(3-methylbut-2-enyl)phenyl)chroman-4-one] | – |
| 4.75 ± 0.61 | COc1ccc2c(c1)OC(c1ccc(O)c(CC=C(C)C)c1)CC2=O (racemic) [8f, 2-(4-Hydroxy-3-(3-methylbut-2-enyl)phenyl)-7-methoxychroman-4-one] | – |
| 3.67 ± 1.61 | COc1ccc2c(c1)OC(c1ccc(OC)c(CC=C(C)C)c1)CC2=O (racemic) [8g, 7-Methoxy-2-(4-methoxy-3-(3-methylbut-2-enyl)phenyl)chroman-4-one] | – |
| 12.1 ± 3.24 | COc1ccc(C2CC(=O)c3ccccc3O2)cc1CC=C(C)C (racemic) [8h, 2-(4-Methoxy-3-(3-methylbut-2-enyl)phenyl)chroman-4-one] | – |
| 4.67 ± 2.15 | COc1ccc2c(c1)OC(c1cccc(CC=C(C)C)c1)CC2=O (racemic) [8i, 7-Methoxy-2-(3-(3-methylbut-2-enyl)phenyl)chroman-4-one] | – |
| 1.86 ± 0.37 | COc1ccc(C2CC(=O)c3ccc(OC)cc3O2)cc1 (racemic) [8j, 7-Methoxy-2-(4-methoxyphenyl)chroman-4-one] | – |

Continued, compound first:

| Compound | IC50 [1] [µM] | further results |
| --- | --- | --- |
| CC(C)=CCc1cc(C2CC(=O)c3ccc(O)cc3O2)ccc1O (racemic) [8b, 7-Hydroxy-2-(4-hydroxy-3-(3-methylbut-2-enyl)phenyl)chroman-4-one] | – | melting point: 76 to 78 °C |
| COc1ccc2c(c1)OC(c1ccc(OCC=C(C)C)cc1)CC2=O (racemic) [8k, 7-Methoxy-2-(4-(3-methylbut-2-enyloxy)phenyl)chroman-4-one] | – | melting point: 108 to 110 °C |
| COc1ccc(C(=O)CC(O)c2ccc(OC)c(CC=C(C)C)c2)c(O)c1 (stereo not shown) [3-Hydroxy-1-(2-hydroxy-4-methoxyphenyl)-3-(4-methoxy-3-(3-methylbut-2-enyl)phenyl)propan-1-one] | – | IC50 [1, 4]: 54.7 ± 11.9 µM |
| COCOc1ccc(C(=O)/C=C/c2ccc(OCOC)c(CC=C(C)C)c2)c(O)c1 [7a, 1-(2-Hydroxy-4-(methoxymethoxy)phenyl)-3-(4-(methoxymethoxy)-3-(3-methylbut-2-enyl)phenyl)prop-2-en-1-one] | > 243 | – |
| CC(C)=CCc1cc(/C=C/C(=O)c2ccc(O)cc2O)ccc1O [7b, 1-(2,4-Dihydroxyphenyl)-3-(4-hydroxy-3-(3-methylbut-2-enyl)phenyl)-prop-2-en-1-one] | > 308 | melting point: 167 °C |
| COCOc1ccc(C(=O)/C=C/c2ccc(OC)c(CC=C(C)C)c2)c(O)c1 [7c, 1-(2-Hydroxy-4-(methoxymethoxy)phenyl)-3-(4-methoxy-3-(3-methylbut-2-enyl)phenyl)prop-2-en-1-one] | > 261 | – |
| COc1ccc(/C=C/C(=O)c2ccc(O)cc2O)cc1CC=C(C)C [7d, 1-(2,4-Dihydroxyphenyl)-3-(4-methoxy-3-(3-methylbut-2-enyl)phenyl)prop-2-en-1-one] | – | melting point: 166 to 168 °C; IC50 [1, 4]: 82.9 ± 44.3 µM |
| COCOc1ccc(/C=C/C(=O)c2ccc(OC)cc2O)cc1CC=C(C)C [7e, 1-(2-Hydroxy-4-methoxyphenyl)-3-(4-(methoxymethoxy)-3-(3-methylbut-2-enyl)phenyl)prop-2-en-1-one] | > 261 | – |
| COc1ccc(C(=O)/C=C/c2ccc(O)c(CC=C(C)C)c2)c(O)c1 [7f, 3-(4-Hydroxy-3-(3-methylbut-2-enyl)phenyl)-1-(2-hydroxy-4-methoxyphenyl)prop-2-en-1-one] | > 295 | melting point: 80 to 82 °C |
| COc1ccc(C(=O)/C=C/c2ccc(OC)c(CC=C(C)C)c2)c(O)c1 [7g, 1-(2-Hydroxy-4-methoxyphenyl)-3-(4-methoxy-3-(3-methylbut-2-enyl)phenyl)prop-2-en-1-one] | > 284 | melting point: 82 to 84 °C |
| COc1ccc(/C=C/C(=O)c2ccccc2O)cc1CC=C(C)C [7h, 1-(2-Hydroxyphenyl)-3-(4-methoxy-3-(3-methylbut-2-enyl)phenyl)prop-2-en-1-one] | > 310 | – |
| COc1ccc(C(=O)/C=C/c2cccc(CC=C(C)C)c2)c(O)c1 [7i, 1-(2-Hydroxy-4-methoxyphenyl)-3-(3-(3-methylbut-2-enyl)phenyl)prop-2-en-1-one] | > 310 | – |
| COc1ccc(/C=C/C(=O)c2ccc(OC)cc2O)cc1 [7j, 1-(2-Hydroxy-4-methoxyphenyl)-3-(4-methoxyphenyl)prop-2-en-1-one] | > 352 | – |
| COc1ccc(C(=O)C=Cc2ccc(OCC=C(C)C)cc2)c(O)c1 [7k, 1-(2-Hydroxy-4-methoxyphenyl)-3-(4-(3-methylbut-2-enyloxy)phenyl)prop-2-en-1-one] | > 271 | melting point: 95 to 97 °C |
| O=c1cc(-c2ccc(O)cc2)oc2cc(O)cc(O)c12 [apigenin] | – | IC50 [2, 5]: 6 µM; ED50, concentration inducing 50% of the cells to differentiate (HL-60 cells): 10 µM |
| COc1cc2c(cc1OC)[C@@H]1C(=O)c3ccc4c(c3O[C@@H]1CO2)C=CC(C)(C)O4 [deguelin] | – | IC50 ([2]; T-24, 6 h): 0.1 µM |
| O=c1c(-c2ccc(O)cc2)coc2cc(O)cc(O)c12 [genistein] | – | ED50, concentration inducing 50% of the cells to differentiate (HL-60 cells): 30 µM |
| CC1=CC(=O)c2ccccc2C1=O [menadione] | – | IC50 [2, 5]: 8.3 µM |
| Tumor necrosis factor (TNF)-α | – | IC50, standard inhibitor in NF-κB luciferase assay [3]: 0.015 to 0.025 µg/mL |
